Source: patent publication US20260062407A1, “PEROXIREDOXIN 3 INHIBITORS AND METHODS OF USE FOR TREATING CANCER” (WAKE FOREST UNIVERSITY HEALTH SCIENCES, priority 2022, published 2026)

Columns and labels:
[1] = tested on: Enterococcus hirae (ATCC #10541); assay: Antimicrobial Activity Assay (MIC); assay type: cell-based
Procedure: The overnight growth was then diluted into growth media to make a single solution of E. hirae with a final optical density at 600 nm=0.02 AU. A 20 mM stock solution of Thiostrepton in DMSO was made and used to make multiple dilutions of TS in DMSO. Each TS dilution (0.1 mL) was then added to a test tube containing 10 mL of the diluted E. hirae and grown at 37° C. overnight while shaking at 180 rpm. The next morning, each tube was visually inspected to determine if the cells grew. Final concentrations tested were 0.120, 0.090, 0.075, 0.060, 0.045, 0.030, and 0.015 μM TS. […] Three replicates were made on three separate days (n=9). […] For TS analogs, the dilute E. hirae was treated with 20 μM final concentration of each analog (three replicates each). […] DMSO was used as a positive control (complete cell growth) and 20 μM thiostrepton was used as a negative control.

578 cancer cells lines = conditions: of 578 cancer cell lines tested; cited from earlier work
[2] = tested on: SK-OV-3 ovarian cancer cells; assay: Cellular Activity Assay (cytotoxicity, crystal violet); assay type: cell-based; conditions: Homo sapiens; SK-OV-3 cells, 48 hr treatment, 0.1-100 μM, crystal violet absorbance at 540 nm
Source text: To test the activity of compounds, two complimentary assays were used as described below. The Biochemical PRX3 Inhibition Assay tests the ability of each compound to crosslink PRX3 in a simple, in vitro system. In the Cellular Activity Assay, we are testing the ability of compounds to kill SK-OV-3 ovarian cancer cells.
The Cellular Activity Assay measures the EC50 of each compound in human SK-OV-3 ovarian cancer cells TS to be taken into the cell, transported to the mitochondria, and crosslink PRX3.
The cytotoxicity of compounds was measured as described in Nelson et al. (2021) Antioxidants (Basel) 10, 150; Cunniff et al. (2015) PloS one 10, e0127310; and Newick et al. (2012)PloS one 7, e39404. SK-OV-3 is an adherent, epithelial, adenocarcinoma cell line obtained from ATCC (ref #: HTB-77). SK-OV-3 cells are resistant to the commonly used chemotherapeutics, cis-platinum and doxorubicin. For this PRX3 crosslinking assay, SK-OV-3 cells were plated in a 96-well plate. After 24 h recovery, the cells were treated for 48 hr with multiple concentrations of each compound ranging from 0.1-100 μM.
Cells were washed with PBS to remove dead cells and the remaining live cells were fixed with 3.0% formaldehyde and stained with 0.1% crystal violet. The amount of crystal violet was determined by reading the absorbance at 540 nm (crystal violet dye dissolved in 100% methanol) using a plate reader. […]

Solubility Assay (HPLC) = assay type: physicochemical; conditions: 20 mM HEPES, 100 mM NaCl, pH 7.5, 18-24 hours at ambient temperature
Procedure: A 20 mM stock solution was made for each compound in DMSO. To measure solubility, 0.03-0.05 mL of the stock was added to 0.27 mL 20 mM HEPES, 100 mM NaCl, pH 7.5. The solution was mixed and rotated 18-24 hours at ambient temperature. The next day, solutions were centrifuged for 10 min at 20,000×g at 24° C. to remove insoluble, solid material. Next, 100 μL of the supernatant containing the soluble compound was added to 900 μL DMSO and High Performance Liquid Chromatography was performed as described in Table 1 and either HPLC gradient 1 (Table 2) or HPLC gradient 2 (Table 3). For each analog, a 200 μM standard and a 20 μM standard were prepared and run in parallel (standards were dissolved completely in 100% DMSO). The amount of compound in the experimental sample was calculated by comparing the area under the curve for compound peak to the area for the closest standard and correcting for dilution.

C=C(NC(=O)C(=C)NC(=O)c1csc(C2=N[C@@H]3c4csc(n4)[C@H]4NC(=O)c5csc(n5)[C@H]([C@](C)(O)[C@@H](C)O)NC(=O)[C@H]5CSC(=N5)/C(=C/C)NC(=O)[C@H]([C@@H](C)O)NC(=O)c5csc(n5)[C@]3(CC2)NC(=O)[C@H](C)NC(=O)C(=C)NC(=O)[C@H](C)NC(=O)[C@H]([C@@H](C)CC)N[C@@H]2C=Cc3c([C@H](C)O)cc(nc3[C@H]2O)C(=O)O[C@@H]4C)n1)C(N)=O [TS, Thiostrepton]
TS concentrations at which complete growth was observed ([1]; E. hirae, overnight at 37° C., n=9): ≤ 0.030 µM
MIC ([1]; Enterococcus hirae, ATCC10541, read-out: TS concentrations at which no growth was observed (MIC)): ≥ 0.045 µM

C=C(NC(=O)C(=C)NC(=O)c1csc(C2=N[C@@H]3c4csc(n4)[C@H]4NC(=O)c5csc(n5)[C@H]([C@](C)(O)[C@@H](C)O)NC(=O)[C@H]5CSC(=N5)/C(=C/C)NC(=O)[C@H]([C@@H](C)O)NC(=O)c5csc(n5)[C@]3(CC2)NC(=O)[C@H](C)NC(=O)C(=C)NC(=O)[C@H](C)NC(=O)[C@H]([C@@H](C)CC)N[C@@H]2C=Cc3c([C@H](C)O)cc(nc3[C@H]2O)C(=O)O[C@@H]4C)n1)C(N)=O [Thiostrepton (TS), Thiostrepton]
number of tumor cell lines with meaningful efficacy (578 cancer cells lines): 403

C=C(NC(=O)c1csc(N2CCC(NC(=O)CC3CCOCC3)CC2)n1)C(=O)NC(=C)C(=O)OC [Compound 51, Methyl 2-(2-(2-(4-(2-(tetrahydro-2H-pyran-4-yl)acetamido)piperidin-1-yl)thiazole-4-carboxamido)acrylamido)acrylate]
EC50 [2]: 10 to 25 µM
Solubility (Solubility Assay (HPLC)): + (<0.1 mM)
